The nature of series [1]: Microsomal stability assay, mouse liver microsomes. The note with it: for microsomal CLint at 0.1 uM: male, CD-1, mouse, liver microsomes, pH 7.4, Microsomal Stability Mouse Clint, 0.1 mg/mL microsomes, 0.1 uM compound. (In general: Microsomes from liver hold many membrane-bound enzymes, among them those of drug oxidation.)
Series [2] has as its target T1, pDNA-PK ser2056 induction in HCT116 spheroids (Homo sapiens, UniProt P78527).
T1 construct: endogenous in cells; host or cells: HCT116 multicellular tumour spheroids
Description: Multicellular tumour spheroid + radiation, pDNA-PK inhibition, HCT116. It counts as cell-based. The note with it: 20 Gy. The essentials: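 HCT116 spheroids (~0.5 mm) in MEM/10% FBS/10 mM glucose, 20% O2, 37 °C, pre-incubated 1 h with compound (10 or 5 μM down to 3.5 nM), irradiated 20 Gy, incubated 2 h more. Cryosections immunostained for pDNA-PK ser2056; EC50 (μM) for 50% reduction of radiation-induced pDNA-PK.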

The target of series [3] is T2, pDNA-PK ser2056 induction in FaDU spheroids (Homo sapiens, UniProt P78527).
T2 construct: host or cells: FaDu
Description: Multicellular tumour spheroid + radiation, pDNA-PK inhibition, FaDU. The class given is cell-based. The note with it: 20 Gy. As for the experimental part:
Multicellular tumour spheroids determination of compound inhibition of pDNA-PK induction following radiation. Tumour spheroids were grown to approximately 0.5 mm in diameter and irradiated with 20 Gy in combination with inhibitor test compounds to determine their potency. Inhibitor concentration for 50% reduction in pDNA-PK induction (IC50) was determined via immunohistochemical staining in spheroid cryosections taken 2 hours following radiation. For cell survival endpoint 8 Gy radiation was used and 3 hours following radiation spheroids were dissociated, counted and plated for colony forming endpoint.
Spheroid+radiation pDNA-PK. Radiation: 20 Gy. Drug: serial dilution 5 or 10 μM down to 3.5 nM (11 wells). Spheroids: 3-6 spheroids per well (300-500 μm diameter). 20% O2 and 5% CO2. 96 well plate format. Endpoint: fluorescent immunostain pDNA-PK ser2056 and image on microscope. Analysis: determine EC50 concentrations that decreases pDNA-PK induction […] after irradiation.
Multicellular tumour spheroids were used to determine potency of test compounds in a 3D tissue environment using inhibition of pDNA-PK induction following radiation or cell survival as the endpoint. For the pDNA-PK endpoint HCT116 or FaDU tumour spheroids were grown to approximately 0.5 mm in diameter and irradiated with 20 Gy in combination with inhibitor test compounds to determine their potency. Experiments were carried out in 96 well plates containing 0.7 mls of MEM media containing 10% FBS and 10 mM glucose under 20% O2 & 5% CO2 at 37° C. Following dilution of compounds 1:1000 from DMSO stocks, compounds were serially diluted from 10 μM down to 3.5 nM and 5-10 spheroids added. 96 well plates were constantly stirred to avoid spheroids settling during the course of the experiment. The inhibitor concentration for 50% reduction in pDNA-PK induction (EC50) was determined via immunohistochemical staining in spheroid cryosections taken 2 hours following radiation using anti-pDNA-PK (ser 2056) and fixed immediately in formalin following sectioning. For cell survival endpoint 8 Gy radiation was used and, 3 hours following radiation, spheroids were dissociated, counted and plated for colony forming endpoint. Data presented in the table compound potency as EC50 [μM].

Series [4] concerns the target T3, DNA-PK phosphorylation at Serine 2056 (Homo sapiens, UniProt P78527).
T3 construct: host or cells: FaDu
The experiment in a line: Cellular Assay for Inhibition of DNA-PK Phosphorylation at Serine 2056 (FaDu cells, neocarzinostatin, sandwich ELISA). The note with it: Table 1. The class given is cell-based. The method in brief:
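FaDu cells were pretreated with compound (0.3% DMSO) for 1 h, then exposed to neocarzinostatin at 1 μg/mL final for 2 h to induce DSBs. Protein-normalized lysates were assayed by MSD sandwich ELISA for total and pSer2056 DNA-PK. IC50 came from variable-slope fits of % inhibition relative to DMSO and NCS controls.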
A general note: An ELISA detects its analyte on a solid surface through an enzyme-linked reagent.

The target of series [5] is T4, DNA-PK (Homo sapiens, UniProt P78527).
T4 construct: purchased Invitrogen PR9107A
The experiment in a line: DNA-PK Assay for Biochemical Enzymatic Inhibition (ADP Glo Kinase assay). The note with it: Table 1. The essentials: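 Human DNA-PK (25 ng) preincubated 15 min with compounds (ten three-fold dilutions) in HEPES pH 7.5, MgCl2, KCl, calf thymus DNA buffer, then substrate 434.4 μM and ATP 64.4 μM (final) for 60 min at room temperature. ADP-Glo luminescence; percent inhibition fitted by four-parameter regression for IC50.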

Where [6] appears, read: Example 7, spheroid, cell line HCT115 [sic], 20% O2, read-out: EC50 (pDNA-PK inhibition, immunohistochemical endpoint).
Setting [7] is: Example 8, spheroid, read-out: Cell line: HCT116 Immunohistochemical endpoint pDNA-PK inhibition EC50.
[8] abbreviates: Example 9 Study 2, 20% O2, read-out: Spheroid Cell line: HCT116 Immunohistochemical endpoint pDNA-PK inhibition EC50.
Setting [9] is: Example 8, spheroid, read-out: Cell line: FaDU Immunohistochemical endpoint pDNA-PK inhibition EC50.
The mark [10] stands for this setting: Example 9 Study 2, 20% O2, read-out: Spheroid Cell line: FaDU Immunohistochemical endpoint pDNA-PK inhibition EC50.

Where two headings read alike, the source gives them in different places.

One may read the microsomal CLint as a measure of how fast metabolising enzymes remove a compound, apart from limits set by blood flow. Low values mean slow turnover, high ones rapid turnover. In general, EC50 refers to the midpoint of the concentration-response curve. The IC50 is the concentration that inhibits the measured activity by half.

Regarding `FC(F)(F)c1cn([C@H]2CC[C@@H](Oc3nc(N4CCOCC4)cc4ncccc34)CC2)cn1` [Compound 17k, 4-(5-(((1s,4s)-4-(4-(trifluoromethyl)-1H-imidazol-1-yl)cyclohexyl)oxy)-1,6-naphthyridin-7-yl)morpholine], in series [1], the “Microsomal Stability (mouse) % rem. 60 min” value was “E (% remaining = 0-25%)”. This compound also gave a microsomal CLint at 0.1 uM in series [1] of more than 116 µL/min/mg. Moreover, the EC50 in series [2] (setting [6]) lay in the range of 1000 to 10000 nM; in series [2] (setting [7]), 1000 to 10000 nM; in series [2] (setting [8]), 1000 to 10000 nM; in series [3] (setting [9]) it was 500 to 1000 nM; in series [3] (setting [10]), 500 to 1000 nM. Besides, the IC50 in series [4] was less than 100 nM; in series [5], less than 0.5 nM.
As to `c1cnc2cc(N3CCOCC3)nc(O[C@H]3CC[C@@H](Nc4cnccn4)CC3)c2c1` [Compound 23, N-((1s,4s)-4-((7-Morpholino-1,6-naphthyridin-5-yl)oxy)cyclohexyl)pyrazin-2-amine], the “Microsomal Stability (mouse) % rem. 60 min” value in series [1] is reported as “E (% remaining = 0-25%)”. The compound further came in with a microsomal CLint at 0.1 uM in series [1] of more than 116 µL/min/mg. Further, the EC50 in series [2] (setting [6]), in series [2] (setting [7]), in series [2] (setting [8]), in series [3] (setting [9]) and in series [3] (setting [10]) was 10 to 500 nM each time. Besides, the IC50 was 100 to 1000 nM in series [4] and less than 0.5 nM in series [5].
For the compound `c1ccc(N[C@H]2CC[C@@H](Oc3nc(N4CCOCC4)cc4ncccc34)CC2)nc1` [Compound 25, N-((1s,4s)-4-((7-morpholino-1,6-naphthyridin-5-yl)oxy)cyclohexyl)pyridin-2-amine], the “Microsomal Stability (mouse) % rem. 60 min” value in series [1] is on record as “F (% remaining = 25-50%)”. Besides, in series [1], the microsomal CLint at 0.1 uM was more than 116 µL/min/mg. The EC50 in series [2] (setting [6]), in series [2] (setting [7]), in series [2] (setting [8]), in series [3] (setting [9]) and in series [3] (setting [10]) was 1000 to 10000 nM in each case. The IC50 is 100 to 1000 nM in series [4] and 0.5 to 1 nM in series [5].
In the case of `c1cnc2cc(N3CCOCC3)nc(O[C@H]3CC[C@@H](Nc4ccncc4)CC3)c2c1` [Compound 27, N-((1s,4s)-4-((7-morpholino-1,6-naphthyridin-5-yl)oxy)cyclohexyl)pyridin-4-amine], the “Microsomal Stability (mouse) % rem. 60 min” value in series [1] is reported as “E (% remaining = 0-25%)”. In series [1], this compound yielded a microsomal CLint at 0.1 uM of more than 116 µL/min/mg. Moreover, the EC50 in series [2] (setting [6]) fell in the range of 1000 to 10000 nM; in series [2] (setting [7]), 1000 to 10000 nM; in series [2] (setting [8]) it was 1000 to 10000 nM; in series [3] (setting [9]), 10 to 500 nM; in series [3] (setting [10]), 10 to 500 nM. Besides, the IC50 in series [4] was 100 to 1000 nM; in series [5], 0.5 to 1 nM.
For the compound `O=C(N[C@H]1CC[C@@H](Oc2nc(N3CCOCC3)cc3ncccc23)CC1)c1ccc(F)cc1` [Compound 111, 4-Fluoro-N-((1s,4s)-4-((7-morpholino-1,6-naphthyridin-5-yl)oxy)cyclohexyl)benzamide], the “Microsomal Stability (mouse) % rem. 60 min” value in series [1] is “E (% remaining = 0-25%)”. The microsomal CLint at 0.1 uM in series [1] is more than 116 µL/min/mg. Further, the EC50 in series [2] (setting [6]) was in the range of 1000 to 10000 nM; in series [2] (setting [7]), 1000 to 10000 nM; in series [2] (setting [8]), 1000 to 10000 nM; in series [3] (setting [9]), 500 to 1000 nM; in series [3] (setting [10]) it was 500 to 1000 nM. Further, the IC50 in series [4] is less than 100 nM; in series [5], less than 0.5 nM.
For the compound `COc1ccc(C(=O)N[C@H]2CC[C@@H](Oc3nc(N4CCOCC4)cc4ncccc34)CC2)cc1` [Compound 112, 4-Methoxy-N-((1s,4s)-4-((7-morpholino-1,6-naphthyridin-5-yl)oxy)cyclohexyl)benzamide], in series [1], the “Microsomal Stability (mouse) % rem. 60 min” value is reported as “E (% remaining = 0-25%)”. In addition, the microsomal CLint at 0.1 uM in series [1] is more than 116 µL/min/mg. The EC50 in series [2] (setting [6]), in series [2] (setting [7]), in series [2] (setting [8]), in series [3] (setting [9]) and in series [3] (setting [10]) was 10 to 500 nM each time. Also, the figures for the IC50 in series [4] and in series [5] were 100 to 1000 nM and less than 0.5 nM, respectively.

For the origin of these results see patent publication US20240246960A1 (adMare Therapeutics Society, priority 2021, published 2024).
